In patent publication US9867826B2, “Heterocycles as modulators of kinase activity” (Merck Patent GmbH, priority 2013, dated 2018):

Assays:
P70S6K (T412E mutant) = P70S6K (T412E mutant) (Homo sapiens (Human), UniProt P23443, T412E); assay: P70S6K enzyme assay; type: biochemical; conditions: 24 μM ATP
Protocol: P70S6K inhibitor compounds were diluted and plated in 96 well plates. A reaction mixture including the following components was then added to the compound plate to initiate the enzyme reaction; P70S6K (3 nM, T412E mutant, Millipore) was mixed with 24 μM ATP in an assay buffer containing 100 mM Hepes (pH 7.5), 5 mM MgCl2, 1 mM DTT, 0.015% Brij and 1 μM of the substrate peptide FITC-AHA-AKRRRLSSLRA-OH (derived from the S6 ribosomal protein sequence, FITC=fluorescein isothiocyanate, AHA=6-aminohexanoic acid). The reaction was incubated for 90 min at 25° C., before the addition of 10 mM EDTA to stop the reaction. The proportion of substrate and product (phosphorylated) peptide was analysed on a Caliper Life Sciences Lab Chip 3000, using a pressure of −1.4 psi, and upstream and downstream voltages of −3000 and −700 respectively. Product peaks were resolved before substrate peaks on the resulting chromatograms.

His-AKT (Full Length) = His-AKT (Full Length) (Homo sapiens (Human), UniProt P31749); assay: AKT enzyme assay; type: biochemical; conditions: 160 uM ATP
Sequence of His-AKT (Full Length) (P31749 whole entry): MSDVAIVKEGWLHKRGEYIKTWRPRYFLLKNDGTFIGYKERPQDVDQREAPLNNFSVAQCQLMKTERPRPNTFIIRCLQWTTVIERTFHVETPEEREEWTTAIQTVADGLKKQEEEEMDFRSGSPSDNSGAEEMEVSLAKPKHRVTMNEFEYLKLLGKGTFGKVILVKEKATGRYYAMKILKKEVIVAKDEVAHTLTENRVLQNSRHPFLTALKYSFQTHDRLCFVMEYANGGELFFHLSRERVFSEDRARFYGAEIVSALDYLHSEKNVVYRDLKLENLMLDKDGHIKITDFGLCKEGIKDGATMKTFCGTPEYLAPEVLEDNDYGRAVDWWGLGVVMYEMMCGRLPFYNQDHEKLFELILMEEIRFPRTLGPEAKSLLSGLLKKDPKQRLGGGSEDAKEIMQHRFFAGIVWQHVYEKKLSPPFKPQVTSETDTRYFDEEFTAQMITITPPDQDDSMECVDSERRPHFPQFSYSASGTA
Protocol: A TTP Mosquito liquid handling instrument was used to place 125 nl of the appropriate concentration of inhibitor in 100% DMSO (for a dose response curve calculation) into each well of a 384-well plate. To this reaction components were added to a final volume of 12.5 μl: • 0.1 ng/μl His-AKT (Full Length), (Invitrogen, Part # P2999, Lot #641228C). • 160 uM ATP (Fluka, 02055) • 1 mM DTT (Sigma, D0632) • 1 mM MgCl2 (Sigma, M1028) • 1 μM substrate peptide (sequence FITC-AHA-GRPRTSSFAEG-NH2), synthesized by Tufts Peptide Synthesis service. • 100 mM HEPES pH 7.5 (Calbiochem, 391338) • 0.015% Brij-35 (Sigma, B4184)
The reaction was incubated for 90 min at 25 C., and then stopped by the addition of 70 μl of Stop buffer (100 mM HEPES pH 7.5, 0.015% Brij-35, 10 mM EDTA (Sigma, E7889)).
The plate was read on a Caliper LC 3000 in an Off-Chip mobility shift assay format, using the following parameters for a 12-sipper chip: screening pressure −2.3 psi, upstream voltage −500, and downstream voltage −3000. These conditions caused unphosphorylated substrate and phosphorylated product peptide to resolve as separate peaks allowing direct measurement of percentage of conversion of substrate to product.
The percent conversion was plotted against concentration of inhibitor to produce a sigmoidal dose response curve, from which an IC50 was calculated.

Sequence of P70S6K (T412E mutant) (P23443 whole entry T412E): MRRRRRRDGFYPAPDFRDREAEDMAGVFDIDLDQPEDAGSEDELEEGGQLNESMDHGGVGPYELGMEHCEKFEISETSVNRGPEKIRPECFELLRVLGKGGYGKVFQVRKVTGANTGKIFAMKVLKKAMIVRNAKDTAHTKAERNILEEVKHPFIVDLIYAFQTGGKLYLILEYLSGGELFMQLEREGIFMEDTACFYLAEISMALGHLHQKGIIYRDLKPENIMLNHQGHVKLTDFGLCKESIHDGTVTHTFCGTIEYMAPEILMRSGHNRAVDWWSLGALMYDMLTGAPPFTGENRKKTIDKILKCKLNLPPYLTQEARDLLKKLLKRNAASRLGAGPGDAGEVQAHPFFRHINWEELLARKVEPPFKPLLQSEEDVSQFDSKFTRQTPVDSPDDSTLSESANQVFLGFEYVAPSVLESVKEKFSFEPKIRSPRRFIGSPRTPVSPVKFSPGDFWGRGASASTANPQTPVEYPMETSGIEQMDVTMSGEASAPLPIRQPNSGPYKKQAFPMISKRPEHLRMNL

SMILES: CNCCn1cc(-c2ccc(F)c(C)c2)nc1[C@@H]1CCN(c2ncnc(N)c2C(C)C)C[C@@H]1F (racemic) [Compound 38, 6-{cis-3-Fluoro-4-[4-(4-fluoro-3-methyl-phenyl)-1-(2-methylamino-ethyl)-1H-imidazol-2-yl]-piperidin-1-yl}-5-isopropyl-pyrimidin-4-ylamine]
- IC50 (P70S6K (T412E mutant)): 1 to 10 nM
- IC50 (His-AKT (Full Length)): 1 to 10 nM

SMILES: Cc1cc(-c2cn(CCN3CCC3)c([C@@H]3CCN(c4ncnc(N)c4OC(C)C)C[C@@H]3F)n2)ccc1F (racemic) [Compound 39, 6-{cis-4-[1-(2-Azetidin-1-yl-ethyl)-4-(4-fluoro-3-methyl-phenyl)-1H-imidazol-2-yl]-3-fluoro-piperidin-1-yl}-5-isopropoxy-pyrimidin-4-ylamine]
- IC50 (P70S6K (T412E mutant)): 1 to 10 nM
- IC50 (His-AKT (Full Length)): 1 to 10 nM

SMILES: Cc1cc(-c2cn(CC3CNC3)c([C@@H]3CCN(c4ncnc(N)c4C(C)C)C[C@@H]3F)n2)ccc1F (racemic) [Compound 41, 6-{cis-4-[1-Azetidin-3-ylmethyl-4-(4-fluoro-3-methyl-phenyl)-1H-imidazol-2-yl]-3-fluoro-piperidin-1-yl}-5-isopropyl-pyrimidin-4-ylamine]
- IC50 (P70S6K (T412E mutant)): 1 to 10 nM
- IC50 (His-AKT (Full Length)): 1 to 10 nM

SMILES: N#Cc1c[nH]c2ncnc(N3CC[C@@H](c4nc(-c5ccc(F)c(C(F)(F)F)c5)cn4CCN4CCC4)[C@@H](F)C3)c12 (racemic) [Compound 42]
- IC50 (P70S6K (T412E mutant)): 1 to 10 nM
- IC50 (His-AKT (Full Length)): 1 to 10 nM

SMILES: N#Cc1c[nH]c2ncnc(N3CC[C@@H](c4nc(-c5ccnc(C(F)(F)F)c5)cn4CCN4CCC4)[C@@H](F)C3)c12 (racemic) [Compound 43]
- IC50 (P70S6K (T412E mutant)): 1 to 10 nM
- IC50 (His-AKT (Full Length)): 1 to 10 nM

SMILES: Cc1cc(-c2cn(CCN3CCC3)c([C@@H]3CCN(c4ncnc(N)c4C(N)=O)C[C@@H]3F)n2)ccc1F (relative stereo) [Compound 19, 4-Amino-6-{cis-4-[1-(2-azetidin-1-yl-ethyl)-4-(4-fluoro-3-methyl-phenyl)-1H-imidazol-2-yl]-3-fluoro-piperidin-1-yl}-pyrimidine-5-carboxylic acid amide]
- IC50 (P70S6K (T412E mutant)): 1 to 10 nM
- IC50 (His-AKT (Full Length)): 1 to 10 nM

SMILES: NC(=O)c1c(N)ncnc1N1CC[C@@H](c2nc(-c3ccc(F)c(C(F)(F)F)c3)cn2CCN2CCC2)[C@@H](F)C1 (single isomer, unassigned) [Compound 3]
- IC50 (P70S6K (T412E mutant)): 1 to 10 nM
- IC50 (His-AKT (Full Length)): 1 to 10 nM

SMILES: NC(=O)c1c(N)ncnc1N1CC[C@H](c2nc(-c3ccc(F)c(C(F)(F)F)c3)cn2CCN2CCC2)[C@H](F)C1 (single isomer, unassigned) [Compound 4]
- IC50 (P70S6K (T412E mutant)): 1 to 10 nM
- IC50 (His-AKT (Full Length)): > 10 nM

SMILES: CN(C)CCn1cc(-c2ccc(F)c(C(F)(F)F)c2)nc1[C@H]1CCN(c2ncnc(N)c2C(N)=O)C[C@H]1F (single isomer, unassigned) [Compound 20]
- IC50 (P70S6K (T412E mutant)): 1 to 10 nM
- IC50 (His-AKT (Full Length)): 1 to 10 nM

SMILES: CN(C)CCn1cc(-c2ccc(F)c(C(F)(F)F)c2)nc1[C@@H]1CCN(c2ncnc(N)c2C(N)=O)C[C@@H]1F (single isomer, unassigned) [Compound 21]
- IC50 (P70S6K (T412E mutant)): 1 to 10 nM
- IC50 (His-AKT (Full Length)): > 10 nM

SMILES: CCOc1c(N)ncnc1N1CC[C@@H](c2nc(-c3ccc(F)c(C(F)(F)F)c3)cn2CCN2CCC2)[C@@H](F)C1 (single isomer, unassigned) [Compound 22]
- IC50 (P70S6K (T412E mutant)): 1 to 10 nM
- IC50 (His-AKT (Full Length)): 1 to 10 nM

SMILES: CCOc1c(N)ncnc1N1CC[C@H](c2nc(-c3ccc(F)c(C(F)(F)F)c3)cn2CCN2CCC2)[C@H](F)C1 (single isomer, unassigned) [Compound 23]
- IC50 (P70S6K (T412E mutant)): 1 to 10 nM
- IC50 (His-AKT (Full Length)): 1 to 10 nM

SMILES: Cc1cc(-c2cn(CCN3CCC3)c([C@@H]3CCN(c4ncnc(N)c4C(N)=O)C[C@@H]3F)n2)ccc1F (single isomer, unassigned) [Compound 27]
- IC50 (P70S6K (T412E mutant)): 1 to 10 nM
- IC50 (His-AKT (Full Length)): 1 to 10 nM

SMILES: Cc1cc(-c2cn(CCN3CCC3)c([C@H]3CCN(c4ncnc(N)c4C(N)=O)C[C@H]3F)n2)ccc1F (single isomer, unassigned) [Compound 28]
- IC50 (P70S6K (T412E mutant)): > 10 nM
- IC50 (His-AKT (Full Length)): > 10 nM

SMILES: CN(C)CCn1cc(-c2ccc(F)c(C(F)(F)F)c2)nc1[C@@H]1CCN(c2ncnc(N)c2Cl)C[C@@H]1F (single isomer, unassigned) [Compound 29]
- IC50 (P70S6K (T412E mutant)): 1 to 10 nM
- IC50 (His-AKT (Full Length)): 1 to 10 nM

SMILES: CN(C)CCn1cc(-c2ccc(F)c(C(F)(F)F)c2)nc1[C@H]1CCN(c2ncnc(N)c2Cl)C[C@H]1F (single isomer, unassigned) [Compound 30]
- IC50 (P70S6K (T412E mutant)): 1 to 10 nM
- IC50 (His-AKT (Full Length)): > 10 nM

SMILES: CC(C)c1c(N)ncnc1N1CC[C@H](c2nc(-c3ccc(F)c(C(F)(F)F)c3)cn2CCN(C)C)[C@H](F)C1 (single isomer, unassigned) [Compound 31]
- IC50 (P70S6K (T412E mutant)): 1 to 10 nM
- IC50 (His-AKT (Full Length)): > 10 nM

SMILES: CC(C)c1c(N)ncnc1N1CC[C@@H](c2nc(-c3ccc(F)c(C(F)(F)F)c3)cn2CCN(C)C)[C@@H](F)C1 (single isomer, unassigned) [Compound 32]
- IC50 (P70S6K (T412E mutant)): 1 to 10 nM
- IC50 (His-AKT (Full Length)): 1 to 10 nM

SMILES: Cc1cc(-c2cn(CCN3CCC3)c([C@H]3CCN(c4ncnc(N)c4C(C)C)C[C@H]3F)n2)ccc1F (single isomer, unassigned) [Compound 34]
- IC50 (P70S6K (T412E mutant)): 1 to 10 nM
- IC50 (His-AKT (Full Length)): > 10 nM

SMILES: Cc1cc(-c2cn(CCN3CCC3)c([C@@H]3CCN(c4ncnc(N)c4C(C)C)C[C@@H]3F)n2)ccc1F (single isomer, unassigned) [Compound 35]
- IC50 (P70S6K (T412E mutant)): 1 to 10 nM
- IC50 (His-AKT (Full Length)): 1 to 10 nM

SMILES: N#Cc1c(N)ncnc1N1CC[C@@H](c2nc(-c3ccc(F)c(C(F)(F)F)c3)cn2CCN2CCC2)[C@@H](F)C1 (single isomer, unassigned) [Compound 40]
- IC50 (P70S6K (T412E mutant)): 1 to 10 nM
- IC50 (His-AKT (Full Length)): 1 to 10 nM

SMILES: Cc1cc(-c2cn(CCN3CCC3)c(C3(O)CCN(c4ncnc(N)c4C#N)CC3)n2)ccc1F [Compound 44, 4-Amino-6-{4-[1-(2-azetidin-1-yl-ethyl)-4-(4-fluoro-3-methyl-phenyl)-1H-imidazol-2-yl]-4-hydroxy-piperidin-1-yl}-pyrimidine-5-carbonitrile]
- IC50 (P70S6K (T412E mutant)): 1 to 10 nM
- IC50 (His-AKT (Full Length)): 1 to 10 nM

SMILES: Cc1cc(-c2cn(CCN3CCC3)c(C3(O)CCN(c4ncnc(N)c4C(C)C)CC3)n2)ccc1F [Compound 45, 1-(6-Amino-5-isopropyl-pyrimidin-4-yl)-4-[1-(2-azetidin-1-yl-ethyl)-4-(4-fluoro-3-methyl-phenyl)-1H-imidazol-2-yl]-piperidin-4-ol]
- IC50 (P70S6K (T412E mutant)): 1 to 10 nM
- IC50 (His-AKT (Full Length)): 1 to 10 nM

SMILES: CCc1c(N)ncnc1N1CCC(O)(c2nc(-c3ccc(F)c(C)c3)cn2CCN2CCC2)CC1 [Compound 46, 1-(6-Amino-5-ethyl-pyrimidin-4-yl)-4-[1-(2-azetidin-1-yl-ethyl)-4-(4-fluoro-3-methyl-phenyl)-1H-imidazol-2-yl]-piperidin-4-ol]
- IC50 (P70S6K (T412E mutant)): 1 to 10 nM
- IC50 (His-AKT (Full Length)): 1 to 10 nM

SMILES: Cc1cc(-c2cn(CCN3CCC3)c(C3(O)CCN(c4ncnc(N)c4Cl)CC3)n2)ccc1F [Compound 47, 1-(6-Amino-5-chloro-pyrimidin-4-yl)-4-[1-(2-azetidin-1-yl-ethyl)-4-(4-fluoro-3-methyl-phenyl)-1H-imidazol-2-yl]-piperidin-4-ol]
- IC50 (P70S6K (T412E mutant)): 1 to 10 nM
- IC50 (His-AKT (Full Length)): 1 to 10 nM

SMILES: Cc1cc(-c2cn(CCN3CCC3)c(C3CCN(c4ncnc(N)c4C#N)CC3(F)F)n2)ccc1F (centres unmarked) [Compound 48, 4-Amino-6-{4-{1-(2-azetidin-1-yl-ethyl)-4-(4-fluoro-3-methyl-phenyl)-1H-imidazol-2-yl}-3,3-difluoro-piperidin-1-yl}-pyrimidine-5-carbonitrile]
- IC50 (P70S6K (T412E mutant)): 1 to 10 nM
- IC50 (His-AKT (Full Length)): 1 to 10 nM

SMILES: Cc1cc(-c2cn(CCN3CCC3)c(C3CCN(c4ncnc(N)c4C(N)=O)CC3(F)F)n2)ccc1F (centres unmarked) [Compound 49, 4-Amino-6-{4-[1-(2-azetidin-1-yl-ethyl)-4-(4-fluoro-3-methyl-phenyl)-1H-imidazol-2-yl]-3,3-difluoro-piperidin-1-yl}-pyrimidine-5-carboxylic acid amide]
- IC50 (P70S6K (T412E mutant)): > 10 nM
- IC50 (His-AKT (Full Length)): > 10 nM

SMILES: Cc1cc(-c2cn(CCN3CCC3)c(C3CCN(c4ncnc(N)c4C(C)C)CC3(F)F)n2)ccc1F (centres unmarked) [Compound 50, 6-{4-[1-(2-Azetidin-1-yl-ethyl)-4-(4-fluoro-3-methyl-phenyl)-1H-imidazol-2-yl]-3,3-difluoro-piperidin-1-yl}-5-isopropyl-pyrimidin-4-ylamine]
- IC50 (P70S6K (T412E mutant)): 1 to 10 nM
- IC50 (His-AKT (Full Length)): 1 to 10 nM
